The values that follow are results of earlier work, collected in patent US20040101539A1, “Aqueous dispersion of low-melting organic solids” (priority 2002, published 2004).

The conditions of the series: at 25° C.

Take `CCCCCCCCn1sc(Cl)c(Cl)c1=O` [DCOIT, 4,5-dichloro-2-octyl-3(2H)-isothiazolone]: the water solubility is listed as 2 ppm.
